Assay [1] has as its system mouse IOP. Put plainly: Mouse IOP after topical application, invasive servo-null micropipette system (SNMS). It counts as in vivo, Black Swiss mice. To be noted: after topical application. In short, it runs like this:
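Black Swiss outbred mice, 7-9 weeks, under i.p. ketamine plus topical proparacaine. Drugs applied topically as droplets with <2% DMSO (none for hydrophilic compounds) and 0.0005% benzalkonium chloride, 295-300 mOsm. IOP measured invasively by servo-null micropipette 10 min after a single application.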

The subject of assay [2] is mouse IOP. Nature of the assay: Mouse IOP after topical application, non-invasive pneumotonometry. It counts as in vivo, Black Swiss mice. In short, it runs like this:
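Black Swiss outbred mice (7-9 weeks, mixed sex) under intraperitoneal ketamine plus topical proparacaine 0.5%. Drugs applied topically as […] droplets three times, containing <2% DMSO and 0.0005% benzalkonium chloride; IOP measured non-invasively by pneumotonometry at 10-min intervals from a stereotactically fixed probe position.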

Assay [3] concerns IOP of A3 subtype adenosine receptor (A3AR)-null mice. To be noted: published reports; cited from earlier work.

As for `CCOC(=O)C1=C(C)NC(c2ccccc2)=C(C(=O)OCc2ccccc2)C1C#Cc1ccccc1` (racemic) [MRS-1191, 3-ethyl 5-benzyl-2-methyl-6-phenyl-4-phenylethynyl-1,4-(±)-dihydropyridine-3,5-dicarboxylate], the “time to begin to lower IOP, invasive servo-null technique” value in the assay with mouse IOP [1] was “within about a minute”. Further, the “time of maximum decrease in IOP observed pneumotonometrically” value in the assay on mouse IOP [2] (after the initial application, end of the experiments) stood at 30 min. Moreover, the “time to begin lowering mouse IOP significantly, non-invasive” value with mouse IOP [2] (after topical application) came out at 30 min. Moreover, in assay [3], the “response of IOP of A3AR-null mice” value is reported as “unresponsive”.

The values are drawn from patent publication US20090258836A1, “EFFECTIVE DELIVERY OF CROSS-SPECIES A3 ADENOSINE-RECEPTOR ANTAGONISTS TO REDUCE INTRAOCULAR PRESSURE” (The Trustees of The University of Pennsylvania, priority 2006, published 2009).
